Data: patent publication US20220332733A1, “MATERIAL FOR WAVELENGTH CONVERSION, WAVELENGTH CONVERSION MEMBER, LIGHT EMITTING DEVICE, AND COMPOUND USED FOR SAME” (FUJIFILM Corporation, priority 2021, published 2022)

What was measured:
Format in all cases: physicochemical
[1] = Relative fluorescence intensity of fluorescent latex dispersion; details: for fluorescence intensity of fluorescent latex as the compound amount is increased (in words): compared with comparative compound (1), summary of Table 1; for Relative Fluorescence Intensity: relative to 6 μmol/g of the same compound, at emission maximum wavelength, dispersion diluted 200 times
Procedure: As latex particles, particles having an average particle diameter of 150 nm, which were prepared by polymerizing a mixture of styrene and an acrylic acid in a mass ratio of 9:1 in a state of being dispersed in water, were used. The average particle diameter was measured using a dynamic light scattering method using Zetasizer Nano ZS (trade name, manufactured by Malvern Panalytical Ltd.) based on the above-described measurement conditions. 5 mL of THF was added dropwise to 25 mL of the latex dispersion with a solid content of 2% (solid content mass: 500 mg) prepared as above, and the mixture was stirred for 10 minutes. 2.5 mL of a THF solution of a test compound (any one of the compound (1-1), the compound (1-2), the compound (2-1), or the comparative compound (1)) was added dropwise thereto for 15 minutes. In Table 1, μmol/g in the column of compound amount indicates the number of moles of the compound used with respect to 1 g of the solid content of the latex. Completion of the dropwise addition of the test compound was followed by stirring for 30 minutes and concentration under reduced pressure to remove THF. After that, the particles were precipitated by centrifugation, followed by addition of ultrapure water and redispersion to manufacture fluorescent latex dispersions Nos. 101 to 104, 201, 202, 301 to 303, and c11 to c14 with a concentration of solid contents of 2 mass %.
The relative fluorescence intensity of the fluorescent latex dispersion with a concentration of solid contents of 2 mass % manufactured as above at an emission maximum wavelength was evaluated. The evaluation was performed using a latex dispersion diluted 200 times with ultrapure water with the use of a fluorescence spectrophotometer RF-5300PC (trade name) manufactured by Shimadzu Corporation for measurement of the emission maximum wavelength and the fluorescence intensity at the emission maximum wavelength.
In the respective test compounds, based on the fluorescence intensity at the emission maximum wavelength with a compound amount of 6 μmol/g, fluorescence intensities at the emission maximum wavelength with other compound amounts were evaluated as the relative fluorescence intensity.

[2] = Absorption characteristics of compound (molar absorption coefficient, half-width) in chloroform; details: for Half-Width: at maximal absorption wavelength
Procedure: Using a spectrophotometer UV-3600 (trade name) manufactured by Shimadzu Corporation, a molar absorption coefficient ϵ (1/mol·cm) and a half-width at a maximal absorption wavelength were measured and evaluated based on the following evaluation ranks. The half-width means a width (distance) between two wavelengths showing half the intensity of the maximal value at the maximum absorption wavelength. In the table, the evaluation of the molar absorption coefficient ϵ is described in the column of ϵ. As a measurement solvent, chloroform was used.
In this test, a molar absorption coefficient at evaluation rank “B” or higher (S to B) is regarded as acceptable, and due to the fact that the half-width is preferably narrow from the viewpoint of an improvement of color reproducibility, a half-width at evaluation rank “A” or higher (S or A) is regarded as acceptable.

[3] = Solubility of compound in solvents or raw material monomers, visual; details: summary of Table 3
Procedure: The solubility in the following solvents or media A to G as raw material monomers of a resin was evaluated. The evaluation method is as follows: 0.1 ml of a solvent was added to […] of each compound to dissolve the compound, and the solubility was visually determined based on the following evaluation ranks. In this test, evaluation rank “B” or higher is an acceptable level.

[4] = compound amount 24 μmol/g latex solids
[5] = compound amount 48 μmol/g latex solids
[6] = compound amount 100 μmol/g latex solids

fluorescence intensity of fluorescent latex as the compound amount is increased (in words) [1]	Relative Fluorescence Intensity [1, 4]	Relative Fluorescence Intensity [1, 5]	Relative Fluorescence Intensity [1, 6]	ε (molar absorption coefficient at maximal absorption wavelength) [2]	Half-Width [2]	solubility in the solvent or raw material monomer (in words) [3]	SMILES
higher fluorescence intensity	4 times as large as No. 101	7 times as large as No. 101	12 times as large as No. 101	S (equal to or greater than 130,000)	S (equal to or less than 30 nm)	excellent solubility	CC1=C(C(=O)OC2C(C(C)(C)C)CC(C)CC2C(C)(C)C)C(N)=[N+]2C1=C(C)c1c(C)c(C(=O)OC3C(C(C)(C)C)CC(C)CC3C(C)(C)C)c(N)n1[B-]2(F)F (centres unmarked) [Compound (1-1)]
higher fluorescence intensity		7 times as large as No. 301	12 times as large as No. 301	S (equal to or greater than 130,000)	S (equal to or less than 30 nm)	excellent solubility	CC1=C(C(=O)OC2C(C(C)(C)C)CC(C)CC2C(C)(C)C)C(N)=[N+]2C1=C(C)c1c(C)c(C(=O)OC3C(C(C)(C)C)CC(C)CC3C(C)(C)C)c(N)n1[B-]2(F)C(F)(F)F (centres unmarked) [Compound (2-1)]
	3 times as large as No. c11	5 times as large as No. c11	6 times as large as No. c11	D (less than 100,000)	S (equal to or less than 30 nm)	poor solubility	CCOC(=O)C1=C(C)C2=C(c3cc(-c4ccc(C(C)(C)C)cc4)cc(-c4ccc(C(C)(C)C)cc4)c3)c3c(C)c(C(=O)OCC)c(C)n3[B-](F)(F)[N+]2=C1C [Comparative Compound (1), reference compound]

SMILES	fluorescence intensity of fluorescent latex as the compound amount is increased (in words) [1]	Relative Fluorescence Intensity [1, 4]	Relative Fluorescence Intensity [1, 5]	Relative Fluorescence Intensity [1, 6]	ε (molar absorption coefficient at maximal absorption wavelength) [2]	Half-Width [2]	solubility in the solvent or raw material monomer (in words) [3]
CC1CC(C(C)(C)C)C(OC(=O)C2=C(c3ccccc3)C3=Cc4c(-c5ccccc5)c(C(=O)OC5C(C(C)(C)C)CC(C)CC5C(C)(C)C)c(N)n4[B-](F)(F)[N+]3=C2N)C(C(C)(C)C)C1 (centres unmarked) [Compound (1-2)]	higher fluorescence intensity			10 times as large as No. 201	S (equal to or greater than 130,000)	A (equal to or greater than 31 nm and equal to or less than 35 nm)	
